Results taken from patent US20090054403A1, “Treatment of Post-Traumatic Stress Disorder” (priority 2007, published 2009).

Tested on: tissue norepinephrine and dopamine levels
Assay: Tissue catecholamines in beagle dogs, 10, 30, 60 mg/kg/day for 4.5 days
Assay type: in vivo
Protocol: This study was performed to determine the dopamine and norepinephrine concentrations in kidney medulla and kidney cortex from dogs dosed with nepicastat. Adult male beagle dogs were randomly assigned to four groups of 8 dogs per group and dosed by oral administration with nepicastat. Nepicastat was delivered in doses of 5, 15 and 30 mg/kg placed in single capsules. Vehicle was an empty capsule. Each dog received 2 doses daily, morning and afternoon (8-10 hours apart) for four days. On the fifth day, each dog received a single dose in the morning and the dogs were euthanized six hours after the last dose. Samples of kidney medulla and kidney cortex were rapidly harvested, weighed, placed in cold 0.4 M perchloric acid, frozen in liquid nitrogen and stored at −70° C.
To quantitate concentrations of norepinephrine (NE) and dopamine (D), each tissue was homogenized by brief sonication in 0.4 M perchloric acid. After sonication, the homogenates were centrifuged at 13,000 rpm in a microfuge for 30 minutes at 4° C. An aliquot of each supernatant was removed and spiked with 3,4-dihydroxybenzylamine (DHBA) as internal standard. The extract from each sample was subjected to HPLC separation using electrochemical detection. The method has a quantitation limit of 2.0 ng/mL and a linear range of 2.0 ng/mL to 400 ng/mL for each analyte.
Nepicastat was weighed and put into capsules (size 13—Torpac; East Hanover, N.J.) to yield doses of 5, 15, and 30 mg/kg per capsule (given b.i.d. to yield doses of 10, 30 and 60 mg/kg/day). The initial dog weight was used to determine the dose for each animal. Dogs receiving 0 mg/kg/day received empty capsules (placebo). All doses of nepicastat were administered as free base equivalents.
Thirty-two male beagle dogs, weighing 10-12 kg, were randomly assigned to one of the following 4 treatment groups (n=8 per group): nepicastat at 0 mg/kg/day (placebo), 10 mg/kg/day (5 mg/kg b.i.d.), 30 mg/kg (15 mg/kg b.i.d.), or 60 mg/kg/day (30 mg/kg b.i.d.). Dog numbers 1-16 were assigned as dose group A and dog numbers 17-32 as dose group B. The terminal surgery for tissue harvest was performed over 2 days with 16 animals studied per day. Two or 3 days before the first compound administration each dog was weighed and skin regions overlying both cephalic, saphenous and jugular veins were shaved. Dosing consisted of oral administration of one capsule with the second given 8-10 hr later. Dogs were dosed as scheduled on days 1-3. On day 4, prior to the AM dose, 3 ml of blood were obtained from a jugular vein for determination of baseline plasma compound levels. The dog was then administered the AM dose, and at 1, 2, 4 and 8 hr following the dose additional 3 ml blood samples were collected for determination of plasma compound levels. Blood samples were put into tubes containing heparin, centrifuged at 4° C. and stored at −20° C. until analysis. The PM dose was then administered as scheduled. The AM dose was administered as scheduled on the days of surgery. Approximately 6 hr after the AM dose, a final 3 ml blood sample was taken from the jugular vein for determination of plasma compound levels. The dog was then anesthetized with pentobarbital Na (˜40 mg/kg), given iv in a cephalic or saphenous vein, and delivered to the necropsy room where an additional dose of pentobarbital Na was given (˜80 mg/kg, iv). The left ventricle, renal artery, kidney, renal medulla, renal cortex and cerebral cortex were then rapidly harvested, weighed, put into 2 ml iced 0.4M perchloric acid, frozen in liquid nitrogen and stored at −70° C. until analysis for catecholamines by HPLC using electrochemical detection. All tissue samples were divided into 2 portions, the second of which were immediately frozen in liquid nitrogen and stored at −70° C. for determination of tissue compound levels. A third transmural sample taken from the left ventricle was immediately frozen in liquid nitrogen and stored at −70° C. for use in receptor binding studies. […]

[1] = 60 mg/kg/day, marginal (0.05<p<0.10)

## Cl.NCc1c[nH]c(=S)n1[C@H]1CCc2c(F)cc(F)cc2C1 [nepicastat, (S)-5-Aminomethyl-1-(5,7-difluoro-1,2,3,4-tetrahydronaphth-2-yl)-2,3-dihydro-2-thioxo-1H-imidazole hydrochloride]
10 mg/kg/day
  decrease in norepinephrine, left ventricle: 85%
  decrease in norepinephrine, renal artery: 86%
  decrease in norepinephrine, renal cortex: 86%
  decrease in norepinephrine, renal medulla: 72%
  increase in dopamine, cerebral cortex: 632%
  increase in dopamine, renal artery: 180%
  increase in dopamine, renal cortex: 156%
  increase in dopamine/norepinephrine ratio, cerebral cortex: 531%
  increase in dopamine/norepinephrine ratio, left ventricle: 852%
  increase in dopamine/norepinephrine ratio, renal artery: 1711%
  increase in dopamine/norepinephrine ratio, renal cortex: 1653%
  increase in dopamine/norepinephrine ratio, renal medulla: 555%
10 mg/kg/day, marginal (0.05<p<0.10)
  increase in dopamine, renal medulla: 150%
30 mg/kg/day
  decrease in norepinephrine, left ventricle: 58%
  decrease in norepinephrine, renal artery: 81%
  decrease in norepinephrine, renal cortex: 66%
  increase in dopamine, renal artery: 273%
  increase in dopamine, renal cortex: 502%
  increase in dopamine, renal medulla: 522%
  increase in dopamine/norepinephrine ratio, cerebral cortex: 86%
  increase in dopamine/norepinephrine ratio, left ventricle: 279%
  increase in dopamine/norepinephrine ratio, renal artery: 1767%
  increase in dopamine/norepinephrine ratio, renal cortex: 1440%
  increase in dopamine/norepinephrine ratio, renal medulla: 636%
  reduction in norepinephrine, cerebral cortex: 63%
30 mg/kg/day, marginal (0.05<p<0.10)
  increase in dopamine, cerebral cortex: 174%
60 mg/kg/day
  decrease in norepinephrine, left ventricle: 79%
  decrease in norepinephrine, renal artery: 85%
  decrease in norepinephrine, renal cortex: 85%
  increase in dopamine, cerebral cortex: 411%
  increase in dopamine, renal artery: 268%
  increase in dopamine, renal cortex: 208%
  increase in dopamine/norepinephrine ratio, cerebral cortex: 612%
  increase in dopamine/norepinephrine ratio, left ventricle: 607%
  increase in dopamine/norepinephrine ratio, renal artery: 1944%
  increase in dopamine/norepinephrine ratio, renal cortex: 1693%
  increase in dopamine/norepinephrine ratio, renal medulla: 677%
[1]
  decrease in norepinephrine, renal medulla: 69%
  increase in dopamine, renal medulla: 156%
10, 30 and 60 mg/kg/day
  dopamine levels, left ventricle: No significant changes
10 and 60 mg/kg/day
  norepinephrine levels, cerebral cortex: not significantly (p>0.01) affected
